These results are taken from ChEMBL document CHEMBL1150064, “Scoparic acid A, a beta-glucuronidase inhibitor from Scoparia dulcis” (J Nat Prod, 1992).

One data set concerns the target T1, Beta-glucuronidase (Bos taurus, UniProt A3KMY8).
T1 sequence (A3KMY8 whole entry): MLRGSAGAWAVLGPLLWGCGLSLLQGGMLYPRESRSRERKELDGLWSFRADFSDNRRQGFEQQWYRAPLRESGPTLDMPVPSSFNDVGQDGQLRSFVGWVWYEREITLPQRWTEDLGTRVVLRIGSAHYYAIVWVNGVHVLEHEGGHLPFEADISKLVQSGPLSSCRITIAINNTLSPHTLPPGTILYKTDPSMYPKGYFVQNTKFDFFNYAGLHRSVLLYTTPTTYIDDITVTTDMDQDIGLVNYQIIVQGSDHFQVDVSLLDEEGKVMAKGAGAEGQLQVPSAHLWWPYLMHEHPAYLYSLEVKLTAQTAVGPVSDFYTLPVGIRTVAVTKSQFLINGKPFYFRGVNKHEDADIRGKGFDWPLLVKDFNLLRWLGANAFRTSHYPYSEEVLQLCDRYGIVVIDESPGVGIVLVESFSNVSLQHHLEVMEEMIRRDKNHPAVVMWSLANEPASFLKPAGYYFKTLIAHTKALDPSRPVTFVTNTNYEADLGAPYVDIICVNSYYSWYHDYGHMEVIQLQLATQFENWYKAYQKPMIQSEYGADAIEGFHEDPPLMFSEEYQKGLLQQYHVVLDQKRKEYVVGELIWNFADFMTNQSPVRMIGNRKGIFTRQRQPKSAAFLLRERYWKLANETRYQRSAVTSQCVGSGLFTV
Briefly: Inhibition of bovine beta-glucuronidase.

Data set [1] has as its target T2, Beta-glucuronidase (Bos taurus) (UniProt A3KMY8).
T2 sequence (whole entry): T1 sequence (A3KMY8 whole entry)
Briefly: Inhibition of bovine beta-glucuroniase assessed as decrease in enzyme inhibition in presence of BSA. The settings on record: concentration not given here.

Substrate in data set [2]: C=C1C[C@@H](OC(=O)c2ccccc2)[C@@H]2[C@](C)(CCC[C@@]2(C)C(=O)O)[C@@H]1CC/C(C)=C/CO
Description: Activity at bovine beta-glucuroniase by Lineweaver-Burke plot. The settings on record: Bos taurus.

On Beta-glucuronidase, `C=C1C[C@@H](OC(=O)c2ccccc2)[C@@H]2[C@](C)(CCC[C@@]2(C)C(=O)O)[C@@H]1CC/C(C)=C/CO` [SCOPARIC ACID A] had an IC50 of 6.8 µM. Moreover, in data set [1], the inhibition was determined as 5%.

The molecule `C=C(C=O)CC[C@@H]1C(=C)C[C@@H](OC(=O)c2ccccc2)[C@@H]2[C@]1(C)CCC[C@@]2(C)C(=O)O` [SCOPARIC ACID C] yielded an IC50 against Beta-glucuronidase of 10 µM.

At Beta-glucuronidase, `C=C1C[C@@H](OC(=O)c2ccccc2)[C@@H]2[C@](C)(CCC[C@@]2(C)C(=O)O)[C@@H]1CCC(C)=O` [SCOPARIC ACID B] had an IC50 above 100 µM.

B1: Beta-glucuronidase (Bos taurus), A3KMY8 (protein)
chain: T1 sequence (A3KMY8 whole entry)
For the molecule B1, the Michaelis-Menten constant (Km) in data set [2] is 14.3 mM.
